# Data: article PMC8291587, “Guanidine Derivatives: How Simple Structural Modification of Histamine H3R Antagonists Has Led to the Discovery of Potent Muscarinic M2R/M4R Antagonists” (ACS Chemical Neuroscience, 2021)
# Where two headings read alike, the source gives them in different places.
# What was measured:
# [1] = tested on: electrically stimulated guinea pig ileum; assay: Decrease of contractility in electrically stimulated guinea pig ileum (-log EC50 determination); conditions: for EC50: Cavia porcellus, read-out: Decrease of contractility (-logEC50 ± sem) (converted); for intrinsic activity (maximal response as fraction of maximal response of the system): from concentration–response curves
# Protocol: A standard ex vivo assay based on the relaxant response of histamine H3R agonists to electrically driven guinea pig ileum was used to test the influence of ADS compounds on the reduction of electrically evoked tissue contraction. […] The −log EC50 value for RAMH and ADS compounds were evaluated. […] Following this, we decided to evaluate the ADS series as potential M2R/M3R ligands on the isolated guinea pig ileum.
# Male guinea pigs, weighing 300–400 g, were euthanized by a blow to the neck. A 20–30 cm length of the distal ileum, apart from the terminal 5 cm, was rapidly removed and placed in phosphate buffer at room temperature (pH 7.4) containing (mM) NaCl (136.9), KCl (2.6), KH2PO4 (1.47), Na2HPO4 (9.58), and indomethacin (1 × 10^–6 mol/L)). The intraluminal content was rinsed, and the isolated intestine was cut into 1.5–2 cm segments. The preparations were mounted between two platinum electrodes isotonically in a 20 mL organ bath filled with Krebs buffer: composition (mM) NaCl (118), KCl (5.6), MgSO4 (1.18), CaCl2 (2.5), NaH2PO4·H2O (1.28), NaHCO3 (25), glucose (5.55), and indomethacin (3 × 10^–7 mol/L). The solution was continuously bubbled with a 95% O2:5% CO2 mixture and maintained at 37 °C under a constant load of 1.0 g (Hugo Sachs Hebel–Messvorsatz (Tl-2)/HF-modem; Hugo Sachs Elektronik, Hugstetten, Germany) connected to a pen recorder (Kipp & Zonen BD41, Delft, Holland). During an equilibration period of 60 min, Krebs buffer was changed every 10 min. Following this, the preparations were continuously stimulated at 15–20 V, at a frequency of 0.1 Hz for a duration of 0.5 ms, with rectangular-wave electrical pulses (Grass Stimulator S-88; Grass Instruments Co., Quincy, Massachusetts, USA). […] Cumulative concentration–response curve was determined to RAMH or tested agonist (10 nM to 10 mM) at increasing concentrations spaced by 3- or 3.3-fold. The agonist potency is expressed as pD2 value (−log EC50) ± sem.
# hM5R = target: T1, hM5R (Homo sapiens, UniProt P08912); assay: hM5R radioligand binding ([3H]NMS, CHO cell membranes)
# T1 construct: host or cells: CHO cells, stably transfected; crude membranes
# T1 sequence (P08912 1-532): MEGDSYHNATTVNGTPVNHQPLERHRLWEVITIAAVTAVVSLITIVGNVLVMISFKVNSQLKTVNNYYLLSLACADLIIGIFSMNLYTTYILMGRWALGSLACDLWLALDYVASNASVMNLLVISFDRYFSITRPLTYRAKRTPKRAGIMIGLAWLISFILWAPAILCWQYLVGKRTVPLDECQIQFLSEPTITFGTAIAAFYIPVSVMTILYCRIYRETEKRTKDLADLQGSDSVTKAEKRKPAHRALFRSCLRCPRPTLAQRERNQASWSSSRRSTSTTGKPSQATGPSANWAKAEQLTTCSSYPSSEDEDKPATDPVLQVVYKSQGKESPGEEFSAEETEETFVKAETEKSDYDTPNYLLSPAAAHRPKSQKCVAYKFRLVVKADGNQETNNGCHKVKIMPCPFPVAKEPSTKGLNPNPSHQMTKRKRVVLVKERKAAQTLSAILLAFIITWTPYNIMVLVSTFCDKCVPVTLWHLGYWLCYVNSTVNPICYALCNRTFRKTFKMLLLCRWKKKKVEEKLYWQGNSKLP
# Protocol: To clearly explain the obtained outcome, we engaged the radioligand binding experiment. The hM1–hM5 radioligand binding experiments were performed in the membrane fractions of Chinese hamster ovary cells (CHO) stably expressing human variants of muscarinic receptors. N-[^3H]Methylscopolamine was used as the radiolabeled ligand.[39] Three compounds were selected from ex vivo screening on guinea pig ileum. […] This compound is also not completely selective for the remaining muscarinic receptor subtypes with −log Ki values over 6. […] It is also a potent muscarinic M1R antagonist, and the M1R/M2R selectivity ratio is <10. It is worth noting that such nonspecific anticholinergics are often associated with neuropsychiatric and cognitive disturbances and that nonselective muscarinic M1R/M2R antagonists, such as scopolamine, can produce cognitive deficits. Further structural modifications of ADS10227 should be used to increase selectivity toward the M2R, as these may present fewer potential side effects associated with the activation of the phospholipase C signaling pathway.
# The culture was derived from CHO cells stably transfected with the genes of human variants of muscarinic receptors. These were purchased from Missouri S&T cDNA Resource Center (Rolla, MO, USA). Cell cultures and crude membranes were prepared as described previously.[45] […]
# All radioligand binding experiments were optimized and carried out according to general guidelines.[39] […] N-Methylscopolamine binding was measured directly in saturation experiments using six concentrations (30–1000 pM) of [^3H]NMS during incubation for 1 h (M2R), 3 h (M1R, M3R, and M4R), or 5 h (M5R). For calculations of the equilibrium dissociation constant (KD), concentrations of free [^3H]NMS were calculated by subtraction of bound radioactivity from total radioactivity in the sample and fitting eq 1 (Experimental Data analysis section). The binding of the tested ligands was determined in competition experiments with 100 pM [^3H]NMS. […] Nonspecific binding was determined in the presence of 1 μM unlabeled atropine. […]
# [2] = electrically stimulated guinea pig ileum
# [3] = read-out: hM5R -log(Ki) ± sem (converted)
Compound,"EC50 [1, 2] [µM]","intrinsic activity (maximal response as fraction of maximal response of the system) [1, 2]",Ki (hM5R; [3]) [µM],EC50 [1] [µM],Ki (hM5R; hM5R -log(Ki) ± sem) [µM]
[H]/N=C(/N)N(CCCCN1CCN(CC2CCC(COc3ccccc3)CC2)CC1)Cc1ccc(C(F)(F)F)cc1 (centres unmarked) [ADS10239],0.24,0.98,0.832,–,–
"N=C(N)N(CCCCN1CCN(C[C@H]2CC[C@@H](COc3ccccc3)CC2)CC1)Cc1ccccc1 [ADS10227, 1-{4-{4-{[4-(phenoxymethyl)cyclohexyl]methyl}piperazin-1-yl}but-1-yl}-1-(benzyl)guanidine]",0.132,0.97,0.195,–,–
N=C(N)N(CCCCN1CCN(CCCCCCCOc2ccccc2)CC1)Cc1ccccc1 [ADS1017],–,–,–,0.661,0.468
